Literature values as cited in patent US7799540B2, “Method of producing lycopene through the fermentation of selected strains of Blackeslea trispora, formulations and uses of the lycopene thus obtained” (Vitatene, S.A., priority 2001, dated 2010).

Conditions: rats; Matos H.R. et al. (2001)

CC(C)=CCC/C(C)=C/C=C/C(C)=C/C=C/C(C)=C/C=C/C=C(C)/C=C/C=C(C)/C=C/C=C(\C)CCC=C(C)C [lycopene, Lycopene]
effect on harmful effect of ferric nitriloacetate on DNA: inhibits the harmful effect of ferric nitriloacetate on DNA | effect on necrosis of the liver: prevents necrosis of the liver
